Measured values reported in patent publication US8420651B2, “Substituted 1-alkylcinnolin-4(1H)-one derivatives, preparation thereof and therapeutic application of same” (Sanofi, priority 2009, dated 2013).

melting point	Structure (SMILES)
155 to 157 °C	CS(=O)(=O)NCCCn1nc(-c2cccc(C(F)(F)F)c2F)c(=O)c2ccc(Cl)cc21 [Compound 38, N-(3-{7-Chloro-3-[2-fluoro-3-(trifluoromethyl)phenyl]-4-oxocinnolin-1(4H)-yl}propyl)methanesulphonamide]
66 to 68 °C	COc1cccc2c(=O)c(-c3cccc(Cl)c3Cl)nn(CCCNS(C)(=O)=O)c12
90 to 91 °C	CCCCCn1nc(-c2cccc(C(F)(F)F)c2Cl)c(=O)c2cccc(OC)c21
128 to 130 °C	CS(=O)(=O)NCCCn1nc(-c2cccc(C(F)(F)F)c2F)c(=O)c2ccc(C(F)(F)F)cc21 [Compound 25, N-{3-[3-[2-Fluoro-3-(trifluoromethyl)phenyl]-4-oxo-7-trifluoromethyl-4H-cinnolin-1-yl]propyl}methanesulphonamide]
66 to 68 °C	COc1cccc2c(=O)c(-c3cccc(F)c3C(F)(F)F)nn(CCCNS(C)(=O)=O)c12 [Compound 20, N-[3-[3-[3-Fluoro-2-(trifluoromethyl)phenyl]-8-methoxy-4-oxocinnolin-1(4H)-yl]propyl]methanesulphonamide]
179 to 181 °C	COc1cccc2c(=O)c(-c3cccc(Cl)c3Cl)nn(CCCN(C)S(C)(=O)=O)c12
145 to 146 °C	COc1cccc2c(=O)c(-c3cccc(C(F)(F)F)c3F)nn(CCNS(C)(=O)=O)c12 [Compound 55, N-(2-{3-[2-Fluoro-3-(trifluoromethyl)phenyl]-8-methoxy-4-oxocinnolin-1(4H)-yl}ethyl)methanesulphonamide]
51 to 53 °C	COc1cccc2c(=O)c(-c3cccc(C(F)(F)F)c3F)nn(CCCNC(=O)C(F)(F)F)c12 [Compound 37, 2,2,2-Trifluoro-N-(3-{3-[2-fluoro-3-(trifluoromethyl)phenyl]-8-methoxy-4-oxocinnolin-1(4H)-yl}propyl)acetamide]
82 to 84 °C	CCCCCn1nc(-c2cccc(C(F)(F)F)c2F)c(=O)c2cccc(OC)c21
98 to 101 °C	COc1cccc2c(=O)c(-c3cccc(OC(F)(F)F)c3)nn(CCCNS(C)(=O)=O)c12 [Compound 35, N-(3-{8-Methoxy-4-oxo-3-[3-(trifluoromethoxy)phenyl]cinnolin-1(4H)-yl}propyl)methanesulphonamide]
99 to 101 °C	CC[S+]([O-])CCn1nc(-c2cccc(C(F)(F)F)c2F)c(=O)c2cccc(OC)c21 (stereo not drawn) [Compound 30, 1-[2-(Ethylsulphinyl)ethyl]-3-[2-fluoro-3-(trifluoromethyl)phenyl]-8-methoxycinnolin-4(1H)-one]
78 to 80 °C	CCCCCn1nc(-c2cccc(C(F)(F)F)c2F)c(=O)c2ccccc21
91 to 93 °C	O=c1c(-c2cccc(C(F)(F)F)c2F)nn(CCCCF)c2ccccc12
62 to 64 °C	COc1cccc2c(=O)c(-c3cccc(C(F)(F)F)c3F)nn(CCCNS(C)(=O)=O)c12 [Compound 18, N-(3-[3-[2-Fluoro-3-(trifluoromethyl)phenyl]-8-methoxy-4-oxocinnolin-1(4H)-yl]propyl)methanesulphonamide]
138 to 139 °C	COc1cccc2c(=O)c(-c3cccc(C(F)(F)F)c3F)nn(CCCS(C)(=O)=O)c12 [Compound 24, 3-[2-Fluoro-3-(trifluoromethyl)phenyl]-1-(3-(methanesulphonyl)propyl)-8-methoxy-1H-cinnolin-4-one]
138 to 139 °C	CCS(=O)(=O)CCn1nc(-c2cccc(C(F)(F)F)c2F)c(=O)c2cccc(OC)c21 [Compound 31, 1-[2-(Ethylsulphonyl)ethyl]-3-[2-fluoro-3-(trifluoromethyl)phenyl]-8-methoxycinnolin-4(1H)-one]
80 to 83 °C	CSCCCn1nc(-c2cccc(C(F)(F)F)c2F)c(=O)c2ccccc21 [Compound 7, 3-(2-Fluoro-3-(trifluoromethyl)phenyl)-1-[3-(methylthio)propyl]cinnolin-4(1H)-one]
130 to 132 °C	CCS(=O)(=O)CCn1nc(-c2cccc(OC(F)(F)F)c2)c(=O)c2cccc(OC)c21 [Compound 50, 1-[2-(Ethylsulphonyl)ethyl]-8-methoxy-3-[3-(trifluoromethoxy)phenyl]cinnolin-4(1H)-one]
95 to 98 °C	COc1cccc2c(=O)c(-c3cccc(C(F)(F)F)c3Cl)nn(CCCNS(C)(=O)=O)c12 [Compound 19, N-[3-[3-[2-Chloro-3-(trifluoromethyl)phenyl]-8-methoxy-4-oxocinnolin-1(4H)-yl]propyl]methanesulphonamide]
127 to 130 °C	COc1cccc2c(=O)c(-c3cccc(C(F)(F)F)c3F)nn(CCCNS(=O)(=O)C(F)(F)F)c12 [Compound 36, 1,1,1-Trifluoro-N-(3-{3-[2-fluoro-3-(trifluoromethyl)phenyl]-8-methoxy-4-oxocinnolin-1(4H)-yl}propyl)methanesulphonamide]
73 to 75 °C	CCSCCn1nc(-c2cccc(C(F)(F)F)c2F)c(=O)c2cccc(OC)c21 [Compound 29, 1-[2-(Ethylthio)ethyl]-3-[2-fluoro-3-(trifluoromethyl)phenyl]-8-methoxycinnolin-4(1H)-one]
149 to 152 °C	CS(=O)(=O)NCCCn1nc(-c2cccc(C(F)(F)F)c2F)c(=O)c2ccccc21 [Compound 27, N-{3-[3-[2-Fluoro-3-(trifluoromethyl)phenyl]-4-oxo-4H-cinnolin-1-yl]-propyl}methanesulphonamide]
62 to 65 °C	COc1cccc2c(=O)c(-c3cccc(Cl)c3Cl)nn(CCCNS(=O)(=O)N(C)C)c12

The next lines start with the compound.

Structure (SMILES)	melting point
COc1ccc(F)cc1-c1nn(CCCC(F)(F)F)c2ccccc2c1=O [Compound 16, 3-(5-Fluoro-2-methoxyphenyl)-1-(4,4,4-trifluorobutyl)cinnolin-4(1H)-one]	118 to 121 °C
CC[S+]([O-])CCn1nc(-c2cccc(Cl)c2Cl)c(=O)c2ccc(Cl)cc21 (stereo not drawn)	75 to 77 °C
CCSCCn1nc(-c2cccc(C(F)(F)F)c2F)c(=O)c2ccc(Cl)cc21 [Compound 41, 7-Chloro-1-[2-(ethylthio)ethyl]-3-[2-fluoro-3-(trifluoromethyl)phenyl]cinnolin-4(1H)-one]	117 to 119 °C
CCCCCn1nc(-c2cccc(C(F)(F)F)c2)c(=O)c2ccccc21	53 to 55 °C
CCCCCn1nc(-c2cccc(OC(F)(F)F)c2)c(=O)c2cccc(OC)c21	50 to 52 °C
CS(=O)(=O)NCCCn1nc(-c2cccc(Cl)c2Cl)c(=O)c2ccc(C(F)(F)F)cc21	80 to 83 °C
CCSCCn1nc(-c2cccc(OC(F)(F)F)c2)c(=O)c2ccc(Cl)cc21 [Compound 46, 7-Chloro-1-[2-(ethylthio)ethyl]-3-[3-(trifluoromethoxy)phenyl]cinnolin-4(1H)-one]	66 to 68 °C
O=c1c(-c2cccc(C(F)(F)F)c2F)nn(CCCC(F)(F)F)c2ccccc12 [Compound 6, 3-[2-Fluoro-3-(trifluoromethyl)phenyl]-1-(4,4,4-trifluorobutyl)cinnolin-4(1H)-one]	96 to 99 °C
O=c1c(-c2cccc(C(F)(F)F)c2)nn(CCCCC(F)(F)F)c2ccccc12	80 to 81 °C
O=c1c(-c2cccc(C(F)(F)F)c2F)nn(CCCCC(F)(F)F)c2ccccc12 [Compound 4, 3-[2-Fluoro-3-(trifluoromethyl)phenyl]-1-(5,5,5-trifluoropentyl)cinnolin-4(1H)-one]	118 to 120 °C
CCS(=O)(=O)CCn1nc(-c2cccc(Cl)c2Cl)c(=O)c2ccc(Cl)cc21	76 to 79 °C
O=c1c(-c2cccc(C(F)(F)F)c2Cl)nn(CCCCC(F)(F)F)c2cc(Cl)ccc12 [Compound 17, 7 Chloro-3-[2-chloro-3-(trifluoromethyl)phenyl]-1-(5,5,5-trifluoropentyl)-cinnolin-4(1H)-one]	137 to 138 °C
CCSCCn1nc(-c2cccc(OC(F)(F)F)c2)c(=O)c2cccc(OC)c21 [Compound 49, 1-[2-(Ethylthio)ethyl]-8-methoxy-3-[3-(trifluoromethoxy)phenyl]cinnolin-4(1H)-one]	86 to 89 °C
CCSCCn1nc(-c2cccc(Cl)c2Cl)c(=O)c2ccc(Cl)cc21	75 to 77 °C
CC[S+]([O-])CCn1nc(-c2cccc(Cl)c2Cl)c(=O)c2cccc(OC)c21 (stereo not drawn)	128 to 130 °C
CCOCCn1nc(-c2cccc(Cl)c2Cl)c(=O)c2cccc(OC)c21	134 to 135 °C
